# Reference: US20250296929A1, “NOVEL HEPATOSELECTIVE POLYADENYLATING POLYMERASES INHIBITORS AND THEIR METHOD OF USE” (BARUCH S. BLUMBERG INSTITUTE, priority 2021, published 2025)
# Target: T1, OATP1B3 (Homo sapiens, UniProt Q9NPD5)
# T1 construct: expressed in transfected cells; host or cells: HEK293
# T1 sequence (Q9NPD5 1-702): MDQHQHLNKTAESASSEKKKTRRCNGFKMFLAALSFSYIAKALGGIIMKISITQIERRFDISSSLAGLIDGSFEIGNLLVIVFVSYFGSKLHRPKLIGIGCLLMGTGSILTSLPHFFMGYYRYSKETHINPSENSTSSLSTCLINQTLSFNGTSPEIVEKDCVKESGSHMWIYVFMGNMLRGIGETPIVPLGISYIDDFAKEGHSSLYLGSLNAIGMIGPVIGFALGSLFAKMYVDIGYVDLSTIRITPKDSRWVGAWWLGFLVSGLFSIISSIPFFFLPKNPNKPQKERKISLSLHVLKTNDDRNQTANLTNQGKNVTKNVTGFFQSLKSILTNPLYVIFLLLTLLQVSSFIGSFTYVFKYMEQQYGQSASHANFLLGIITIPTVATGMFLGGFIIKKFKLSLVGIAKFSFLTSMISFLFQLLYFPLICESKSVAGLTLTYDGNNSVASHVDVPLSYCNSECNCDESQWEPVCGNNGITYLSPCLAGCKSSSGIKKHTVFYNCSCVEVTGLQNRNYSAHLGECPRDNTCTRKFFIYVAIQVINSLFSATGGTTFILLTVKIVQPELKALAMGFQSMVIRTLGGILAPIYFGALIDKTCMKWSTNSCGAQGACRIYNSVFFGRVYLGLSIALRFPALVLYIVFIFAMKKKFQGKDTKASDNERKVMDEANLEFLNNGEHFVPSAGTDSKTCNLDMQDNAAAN
# Test: OATP1B3 transporter substrate uptake in OATP1B3-HEK293 cells
# Type: in vitro ADME
# Conditions: test concentration 1 μM
# Description: Protocol for identification of compounds that are substrates of transporters OATP1B1 and OATP1B3. Transfected HTEK293 and vector control HTEK293 cells were cultured in 24-well poly-D-lysine or collagen-coated tissue culture plates ([…]) for 2 and 10 minutes respectively in transport buffer (HIBSSg, pH 7.4, pre-warmed to 37° C.). At a defined time point, the uptake experiments were stopped by removing dosing solution followed by two washes of ice-cold HIBSSg buffer. The cells were lysed for 2 minutes with […] containing an appropriate internal standard (when available). Lysis buffer were chilled to −20° C., and the plate was kept on ice during lysis. The cell lysate was transferred into a 96-well plate for sample analysis with LC-MS/MS analysis to determine concentration of test compound in cell lysate. The uptake of test compounds was normalized by total cell protein using the BCA Protein Assay Kit following the manufacturer's protocol. The inhibitor Rifamycin SV was used to block OATP1B1 and OATP1B3 transporter activity in order to determine uptake ratios.
structure (smiles),measurement,setting,value
"COc1cc2c(cc1OCCCCCCC(=O)O)C[C@@H](C(C)C)n1cc(C(=O)O)c(=O)cc1-2 [Example 6, (S)-9-((6-carboxyhexyl)oxy)-6-isopropyl-10-methoxy-2-oxo-6,7-dihydro-2H-pyrido[2,1-a]isoquinoline-3-carboxylic acid]",Uptake Ratio (−/+Inhibitor),"OATP1B3-HEK293 cells, inhibitor Rifamycin SV",11.57
same,Uptake Ratio (Transporter(−Inhibitor)/Mock(−Inhibitor)),OATP1B3-HEK293 vs Mock,24.80
